Source: patent publication US20240158446A1, “CYCLIC COMPOUND HAVING SELECTIVE INHIBITORY ACTION ON KRAS OVER HRAS AND NRAS” (CHUGAI SEIYAKU KABUSHIKI KAISHA, priority 2021, published 2024)
pIC50, pKd: −log10 of the molar value.

Assays:
[1] = target: GDP-bound NRAS wild-type protein (Homo sapiens, UniProt P01111); assay: Binding to NRAS by surface plasmon resonance (SPR), Single Cycle Kinetics; details: SPR, GDP-bound NRAS wild-type protein vs GDP-bound KRAS wild-type protein
[2] = system: human lung cancer strain NCI-H441;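 also: cell proliferation inhibition after four days measured by CellTiter-Glo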
[3] = target: GDP-bound KRAS wild-type protein (Homo sapiens, UniProt P01116); assay: Binding to KRAS by surface plasmon resonance (SPR), Single Cycle Kinetics; details: SPR, Single Cycle Kinetics, GDP-bound KRAS wild-type protein; read-out: KRAS KD
Chain of GDP-bound KRAS wild-type protein (P01116 whole entry): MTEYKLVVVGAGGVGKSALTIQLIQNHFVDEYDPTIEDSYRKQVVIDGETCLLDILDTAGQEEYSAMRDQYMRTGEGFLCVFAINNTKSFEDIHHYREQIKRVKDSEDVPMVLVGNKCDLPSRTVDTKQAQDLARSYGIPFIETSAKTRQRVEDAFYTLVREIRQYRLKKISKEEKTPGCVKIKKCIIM

[4] = target: GDP-bound HRAS wild-type protein (Homo sapiens, UniProt P01112); assay: Binding to HRAS by surface plasmon resonance (SPR), Single Cycle Kinetics; details: SPR, GDP-bound HRAS wild-type protein vs GDP-bound KRAS wild-type protein
Chain of GDP-bound HRAS wild-type protein (P01112 whole entry): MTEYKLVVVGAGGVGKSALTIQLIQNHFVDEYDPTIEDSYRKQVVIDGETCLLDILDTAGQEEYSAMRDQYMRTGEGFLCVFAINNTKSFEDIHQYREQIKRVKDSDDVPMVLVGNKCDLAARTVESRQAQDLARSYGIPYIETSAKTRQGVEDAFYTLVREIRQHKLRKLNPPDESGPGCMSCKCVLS

Chain of GDP-bound NRAS wild-type protein (P01111 whole entry): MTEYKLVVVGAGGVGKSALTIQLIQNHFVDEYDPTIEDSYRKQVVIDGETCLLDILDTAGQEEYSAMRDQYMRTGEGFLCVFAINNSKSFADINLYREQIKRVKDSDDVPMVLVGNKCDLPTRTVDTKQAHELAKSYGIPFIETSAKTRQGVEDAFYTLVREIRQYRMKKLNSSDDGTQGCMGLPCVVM

Row | Structure (SMILES) | NRAS/KRAS (ratio of KD value for NRAS to KD value for KRAS) [1] | pIC50 [2] | pKd [3] | HRAS/KRAS (ratio of KD value for HRAS to KD value for KRAS) [4]
1 | CCOC[C@H]1C(=O)N[C@@H]([C@@H](C)CC)C(=O)N(C)CC(=O)N(C)[C@H]2C/C=C\CCN(C2=O)[C@@H](Cc2ccc(C)cc2)C(=O)N(C)CC(=O)N[C@@H](CCc2cc(F)c(C(F)(F)F)c(F)c2)C(=O)N2C[C@@H](C)C[C@H]2C(=O)NC2(CC(C)(C)C2)C(=O)N(C)[C@@H](C2CCCC2)C(=O)N(C)[C@H](C(=O)N(C)CC)CC(=O)N1C [PP2457] | A (a compound having 10 or more and less than 20 is denoted as A) | 7.88 | 9.77 | A (a compound having 10 or more and less than 20 is denoted as A)
2 | CCOC[C@H]1C(=O)N[C@@H]([C@@H](C)CC)C(=O)N(C)CC(=O)N(C)[C@H]2C/C=C\CCN(C2=O)[C@@H](CC2CCC(F)(F)CC2)C(=O)N(C)CC(=O)N[C@@H](CCc2ccc(C(F)(F)F)c(OC)c2)C(=O)N2C[C@@H](C)C[C@H]2C(=O)NC2(CC(C)(C)C2)C(=O)N(C)[C@@H](C(CC)CC)C(=O)N(C)[C@H](C(=O)N(C)C)CC(=O)N1C [PP2458] | A (a compound having 10 or more and less than 20 is denoted as A) | 7.09 | 8.89 | A (a compound having 10 or more and less than 20 is denoted as A)
3 | CCOC[C@H]1C(=O)N[C@@H]([C@@H](C)CC)C(=O)N(C)CC(=O)N(C)[C@H]2C/C=C\CCN(C2=O)[C@@H](CC2CCC(F)(F)CC2)C(=O)N(C)CC(=O)N[C@@H](CCc2ccc(C(F)(F)F)c(Cl)c2)C(=O)N2C[C@H](OCC)C[C@H]2C(=O)NC2(CC(C)(C)C2)C(=O)N(C)[C@@H](C(CC)CC)C(=O)N(C)[C@H](C(=O)N(C)C)CC(=O)N1C [PP2460] | A (a compound having 10 or more and less than 20 is denoted as A) | 7.73 | 9.15 | A (a compound having 10 or more and less than 20 is denoted as A)
4 | CCCOC[C@H]1C(=O)N[C@@H]([C@@H](C)CC)C(=O)N(C)CC(=O)N(C)[C@H]2C/C=C\CCN(C2=O)[C@@H](Cc2ccc(C)cc2)C(=O)N(C)CC(=O)N[C@@H](CCc2ccc(C(F)(F)F)c(OC)c2)C(=O)N2C[C@@H](C)C[C@H]2C(=O)NC2(CC(C)(C)C2)C(=O)N(C)[C@@H](C2CCCC2)C(=O)N(C)[C@H](C(=O)N(C)CC)CC(=O)N1C [PP2461] | A (a compound having 10 or more and less than 20 is denoted as A) | 7.97 | 9.82 | A (a compound having 10 or more and less than 20 is denoted as A)
5 | CCOC[C@H]1C(=O)N[C@@H]([C@@H](C)CC)C(=O)N(C)CC(=O)N(C)[C@H]2C/C=C\CCN(C2=O)[C@@H](CC2CCC(F)(F)CC2)C(=O)N(C)CC(=O)N[C@@H](CCc2cc(F)c(C(F)(F)F)c(F)c2)C(=O)N2C[C@@H](C)C[C@H]2C(=O)NC2(CC(C)(C)C2)C(=O)N(C)[C@@H](C(CC)CC)C(=O)N(C)[C@H](C(=O)N(C)C)CC(=O)N1C [PP2462] | A (a compound having 10 or more and less than 20 is denoted as A) | 7.06 | 8.80 | A (a compound having 10 or more and less than 20 is denoted as A)
6 | CCCOC[C@H]1C(=O)N[C@@H]([C@@H](C)CC)C(=O)N(C)CC(=O)N(C)[C@H]2C/C=C\CCN(C2=O)[C@@H](Cc2ccc(C)cc2)C(=O)N(C)CC(=O)N[C@@H](CCc2ccc(C(F)(F)F)c(OC)c2)C(=O)N2C[C@H](OCC)C[C@H]2C(=O)NC2(CC(C)(C)C2)C(=O)N(C)[C@@H](C2CCCC2)C(=O)N(C)[C@H](C(=O)N(C)CC)CC(=O)N1C [PP2463] | A (a compound having 10 or more and less than 20 is denoted as A) | 8.19 | 9.96 | A (a compound having 10 or more and less than 20 is denoted as A)
7 | CCCOC[C@H]1C(=O)N[C@@H]([C@@H](C)CC)C(=O)N(C)CC(=O)N(C)[C@H]2C/C=C\CCN(C2=O)[C@@H](CC2CCC(F)(F)CC2)C(=O)N(C)CC(=O)N[C@@H](CCc2ccc(C(F)(F)F)c(OC)c2)C(=O)N2C[C@H](OCC)C[C@H]2C(=O)NC2(CC(C)(C)C2)C(=O)N(C)[C@@H](C(CC)CC)C(=O)N(C)[C@H](C(=O)N(C)C)CC(=O)N1C [PP2464] | A (a compound having 10 or more and less than 20 is denoted as A) | 7.18 | 9.01 | A (a compound having 10 or more and less than 20 is denoted as A)
8 | CCOC[C@H]1C(=O)N[C@@H]([C@@H](C)CC)C(=O)N(C)CC(=O)N(C)[C@H]2C/C=C\CCN(C2=O)[C@@H](Cc2ccc(C)cc2)C(=O)N(C)CC(=O)N[C@@H](CCc2ccc(C(F)(F)F)c(Cl)c2)C(=O)N2C[C@@H](C)C[C@H]2C(=O)NC2(CC(C)(C)C2)C(=O)N(C)[C@@H](C2CCCC2)C(=O)N(C)[C@H](C(=O)N(CC)CC)CC(=O)N1C [PP2465] | AA (a compound having 20 or more is denoted as AA) | 7.40 | 9.29 | A (a compound having 10 or more and less than 20 is denoted as A)
9 | CCC(CC)[C@H]1C(=O)N(C)[C@H](C(=O)N(C)C)CC(=O)N(C)[C@@H](COC)C(=O)N[C@@H]([C@@H](C)CC)C(=O)N(C)CC(=O)N(C)[C@H]2C/C=C\CCN(C2=O)[C@@H](CC2CCCCC2)C(=O)N(C)CC(=O)N[C@@H](CCc2ccc(C(F)(F)F)c(OC)c2)C(=O)N2C[C@@H](C)C[C@H]2C(=O)NC2(CC(C)(C)C2)C(=O)N1C [PP2466] | A (a compound having 10 or more and less than 20 is denoted as A) | 6.77 | 8.41 | A (a compound having 10 or more and less than 20 is denoted as A)
10 | CCCOC[C@H]1C(=O)N[C@@H]([C@@H](C)CC)C(=O)N(C)CC(=O)N(C)[C@H]2C/C=C\CCN(C2=O)[C@@H](Cc2ccc(C)cc2)C(=O)N(C)CC(=O)N[C@@H](CCc2ccc(C(F)(F)F)c(Cl)c2)C(=O)N2C[C@@H](C)C[C@H]2C(=O)NC2(CC(C)(C)C2)C(=O)N(C)[C@@H](C2CCCC2)C(=O)N(C)[C@H](C(=O)N(C)CC)CC(=O)N1C [PP2467] | A (a compound having 10 or more and less than 20 is denoted as A) | 7.66 | 9.59 | B (a compound having 3 or more and less than 10 is denoted as B)
11 | CCO[C@@H]1C[C@H]2C(=O)NC3(CC(C)(C)C3)C(=O)N(C)[C@@H](C(CC)CC)C(=O)N(C)[C@H](C(=O)N(C)C)CC(=O)N(C)[C@@H](COC)C(=O)N[C@@H]([C@@H](C)CC)C(=O)N(C)CC(=O)N(C)[C@H]3C/C=C\CCN(C3=O)[C@@H](CC3CCCCC3)C(=O)N(C)CC(=O)N[C@@H](CCc3ccc(C(F)(F)F)c(Cl)c3)C(=O)N2C1 [PP2468] | AA (a compound having 20 or more is denoted as AA) | 7.14 | 8.89 | A (a compound having 10 or more and less than 20 is denoted as A)
12 | CCCOC[C@H]1C(=O)N[C@@H]([C@@H](C)CC)C(=O)N(C)CC(=O)N(C)[C@H]2C/C=C\CCN(C2=O)[C@@H](Cc2ccc(C)cc2)C(=O)N(C)CC(=O)N[C@@H](CCc2ccc(C(F)(F)F)c(Cl)c2)C(=O)N2C[C@H](OCC)C[C@H]2C(=O)NC2(CC(C)(C)C2)C(=O)N(C)[C@@H](C2CCCC2)C(=O)N(C)[C@H](C(=O)N(C)CC)CC(=O)N1C [PP2469] | A (a compound having 10 or more and less than 20 is denoted as A) | 7.80 | 9.72 | B (a compound having 3 or more and less than 10 is denoted as B)
13 | CCOC[C@H]1C(=O)N[C@@H]([C@@H](C)CC)C(=O)N(C)CC(=O)N(C)[C@H]2C/C=C\CCN(C2=O)[C@@H](CC2CCCCC2)C(=O)N(C)CC(=O)N[C@@H](CCc2ccc(C(F)(F)F)c(OC)c2)C(=O)N2C[C@H](OCC)C[C@H]2C(=O)NC2(CC(C)(C)C2)C(=O)N(C)[C@@H](C(CC)CC)C(=O)N(C)[C@H](C(=O)N(C)C)CC(=O)N1C [PP2470] | A (a compound having 10 or more and less than 20 is denoted as A) | 6.93 | 8.74 | A (a compound having 10 or more and less than 20 is denoted as A)
14 | CCCOC[C@H]1C(=O)N[C@@H]([C@@H](C)CC)C(=O)N(C)CC(=O)N(C)[C@H]2C/C=C\CCN(C2=O)[C@@H](Cc2ccc(C)cc2)C(=O)N(C)CC(=O)N[C@@H](CCc2cc(F)c(C(F)(F)F)c(F)c2)C(=O)N2C[C@@H](C)C[C@H]2C(=O)NC2(CC(C)(C)C2)C(=O)N(C)[C@@H](C2CCCC2)C(=O)N(C)[C@H](C(=O)N(C)CC)CC(=O)N1C [PP2471] | A (a compound having 10 or more and less than 20 is denoted as A) | 7.82 | 9.80 | A (a compound having 10 or more and less than 20 is denoted as A)
